Patent US20150094264A1, “USE OF OBESTATIN FOR MUSCLE REGENERATION” (UNIVERSIDADE DE SANTIAGO DE COMPOSTELA, priority 2012, published 2015)

Assays:
p38 = assay: Activation of p38 [pp38(Y138)] by obestatin in L6E9 myoblasts, immunoblot; type: cell-based, rat
Experimental: FIG. 1. Activation of regulatory enzymes of mitogenesis and myogenesis by obestatin in L6E9 myoblasts and myotubes. Effect of obestatin on activity of regulatory enzymes of the mitogenic capacity (ERK 1/2), metabolic capacity (Akt and AMPK) and myogenic capacity (Akt and p38). Based on a dose-response study, the saturating dose for the maximum enzymatic activation is established for a concentration of 5 nM. […] Inactivation of AMPK is described in both cell models. The activation profile discovers bimodal characteristics for the action of obestatin: 1.—mitogenic activation in myoblasts; and, 2.—myogenic activation. The immunoblots are representative of 6 independent assays.
The studies were performed based on the use of L6E9 rat myoblasts which were maintained in growth medium (GM) formed by DMEM (Dulbecco's Modified Eagle Medium) supplemented with 10% fetal bovine serum (FBS), 100 U/mL penicillin, and 100 U/mL streptomycin. For the differentiation, the cells were cultured at 80-100% of confluence in GM and it was replaced for differentiation medium (DM) formed by DMEM supplemented with 2% FBS, 100 U/mL penicillin, and 100 U/mL streptomycin during 6 days.
(§1) The tissue or cell samples were directly lysed in RIPA buffer [Tris-HCl (pH 7.2), 50 mM; NaCl, 150 mM; EDTA, 1 mM; NP-40, 1% (v/v); Sodium deoxycholate, 0.25% (w/v); protease inhibitors (Sigma); phosphatise inhibitors (Sigma)]. The lysates were clarified by centrifugation (14,000×g during 15 min at 4° C.) and the protein concentration was quantified using QuantiPro™ BCA assay kit (Sigma). For immunoblot, equal amounts of protein were loaded which were fractionated in SOS-PAGE gels and transferred to nitrocellulose membranes. The immunoreactive bands were detected by chemiluminescence (Pierce ECL Western Blotting Substrate; Thermo Scientific, Ill., USA).
To define the mitogenic and myogenic effect of obestatin, the activation capacity was studied of intracellular targets regulating proliferation (ERK1/2) and/or differentiation (p38 and Akt). […]

[1] = test system: damaged tibialis anterior of mouse; assay: Local administration in damaged tibialis anterior of mouse: myogenic markers, immunoblot; type: in vivo, Swiss mice; conditions: 300 nmol/kg weight local, 24 h intervals
Experimental: FIG. 8. Effect of the exogenous administration of obestatin in the damaged tibialis anterior of mouse (animal model) on the myogenic markers PAX-7 (A), MyoD (B), myogenin (C) and eMHC (D). Effect of the local exogenous administration of obestatin (300 nmol/kg/24 h) on early and later markers of myogenesis in damaged skeletal muscle tissue (tibialis anterior) in mice. The protein levels are expressed as % of the control obtained from the group of animals with administration of PBS (n=10 per group; mean±standard error; *, #, p<0.005).
as §1
The mice (30 g; n=50) were maintained in 12 h light-darkness cycled with free access to standard diet and water. To induce the muscle damage, the tibialis anterior muscle (TA) was extracted under anaesthesia and subjected to three cycles of damage due to cold contact applying along the length of the muscle a metal bar cooled in liquid nitrogen. The damaged muscles were treated locally with obestatin injection (300 nmol/kg weight) or the corresponding vehicle (PBS; control) during the times indicated in 24 h intervals. The animals were assigned to one of the five experimental groups (n=10/group): 1) control group (saline); 2) obestatin group 48 h (obestatin 300 nmol/kg weight/24 h); 3) obestatin group 96 h (obestatin 300 nmol/kg weight/24 h); 4) obestatin group 168 h (obestatin 300 nmol/kg weight/24 h); and, obestatin group 240 h (obestatin 300 nmol/kg weight/24 h). After the indicated times, the mice were sacrificed by cervical dislocation under anaesthetic treatment and the tissues were extracted for immunoblot and immunohistochemical analyses.
The estimate of the therapeutic potential of obestatin as muscle regenerator agent was assessed in Swiss mice wherein muscle damage was induced in the tibialis anterior and obestatin (300 nmol/kg weight) or the corresponding vehicle (PBS) was later locally administered. The muscles were extracted and analysed by immunoblot 48, 96, 168 and 240 h after the treatment (n=5 per study time).

[2] = test system: damaged tibialis anterior of mouse; assay: Histological (hematoxylin/eosin) analysis of muscle regeneration in damaged tibialis anterior of mouse; type: in vivo, Swiss mice; conditions: 300 nmol/kg weight local
Experimental: FIG. 9. Immunohistochemical analysis of the effect of the exogenous administration of obestatin on the capacity for muscle regeneration in the damaged tibialis anterior of mouse (animal model). The images shown are representative of the sections of the damaged tibialis anterior muscle (hematoxylin/eosin staining) under the local exogenous administration of obestatin (300 nmol/kg/24 h) or PBS (control) 48, 96, 168 and 240 h after inducing the damage. The images show the area of damage and regeneration at the indicated times.
FIG. 10. Quantitative analysis of the areas of the regenerative fibres of the tibialis anterior 96 and 168 hours after inducing the damage and exogenous administration of obestatin or PBS (control). The analysis corresponds to the area of regeneration myofibers in the tibialis anterior. For this purpose, an immunohistochemical analysis was performed by staining with hematoxylin/eosin and later quantification of the area of the myofiber by the use of the ImageJ64 program (n=10 per group; mean±standard error; *, p<0.005).
The muscle samples were mounted in a cold freezing medium [Tragacanth; Santa Cruz Biotechnology (CA, USA)] and frozen in a mixture of nitrogen-isopentane. The tissue sections were obtained by serial cuts with a cryostat (10 μm) and were mounted in adhesion slides for histochemistry (Marienfeld, Lauda-Konigshofen, Germany). The sections fixed were stained with hematoxylin/eosin. The quantification of the area of the regenerative myofibers was performed by using ImageJ64 analysis software.
The mice (30 g; n=50) were maintained in 12 h light-darkness cycled with free access to standard diet and water. To induce the muscle damage, the tibialis anterior muscle (TA) was extracted under anaesthesia and subjected to three cycles of damage due to cold contact applying along the length of the muscle a metal bar cooled in liquid nitrogen. The damaged muscles were treated locally with obestatin injection (300 nmol/kg weight) or the corresponding vehicle (PBS; control) during the times indicated in 24 h intervals. […]

[3] = test system: tibialis anterior muscle in mice where the sciatic nerve has been denervated; assay: Weight reduction of tibialis anterior after denervation of the sciatic nerve (model of muscular atrophy); type: in vivo, Swiss mice; conditions: 300 nmol/kg weight local, 14 days
Experimental: FIG. 14. Analysis of the weight reduction of the tibialis anterior muscle in mice where the sciatic nerve has been denervated (model of muscular atrophy) under the exogenous administration of obestatin or vehicle (PBS). Swiss mice were used whereon the sciatic nerve was denervated in one of the limbs, using the other as control. The effect of the administration of obestatin (300 nmol/kg weight) or the vehicle (PBS; control) was assessed in the tibialis anterior muscle after 14 days. The data are expressed as % of weight reduction with respect to the control without denervation (n=5 per group; mean±standard error; *, p<0.005).
To study muscular atrophy, the sciatic nerve was denervated using Swiss mice. The denervation of the sciatic nerve was performed under anaesthesia, making an incision in the mid thigh on the lateral face of the rear right limb, separating the muscles and raising the sciatic nerve with surgical forceps. A portion of the nerve was isolated removing a fragment thereof. Finally the incision was closed. These animals were locally administered an injection of obestatin (300 nmol/kg weight) or the corresponding vehicle (PBS; control) in intervals of 24 h during 14 days.

With obestatin the “obestatin concentration at which activation of p38 [pp38(Y138)] was observed” value (p38) was 0.1 nM, the “obestatin concentration at which pp38(Y138) phosphorylation levels reached saturable values” (p38; dose-response) was 5 nM and the “time post-stimulation of maximum pp38(Y138) levels” value (p38; obestatin 5 nM) was 10 min. The “expression times of each of the factors analysed (Pax-7, MyoD, myogenin, eMHC)” value [1] was “acceleration”, the “MyoD levels in treated muscles in relation to control muscles” value ([1]; 48, 96, 168 and 240 h) was “significantly higher” and the “Pax-7 levels in treated muscles in relation to control muscles” value ([1]; 48, 96, 168 and 240 h) was “significantly higher”. The “eMHC levels in treated muscles in relation to control muscles” value ([1]; 48, 96, 168 and 240 h) was “significantly higher”, the “myogenin levels in treated muscles in relation to control muscles” value ([1]; 48, 96, 168 and 240 h) was “significantly higher” and the “regenerative process (restructuring of the myofibers in the area of damage) in relation to controls” value ([2]; 48, 96, 168 and 240 h) was “acceleration”. The “area of the regenerative fibres in the tibialis anterior in relation to controls” value ([2]; 96 and 168 h after the treatment) was “significant increase”, the “calibre of the regenerative myofibers in relation to controls” value ([2]; hematoxylin/eosin sections) was “significant increase” and the “loss of tibialis anterior muscle mass (weight) in relation to vehicle (PBS) controls” value [3] was “reduces the loss of muscle mass”.
